Experimental data reported in patent publication US10370366B2 (Flatley Discovery Lab, LLC, priority 2013, dated 2019).

Target: T1, human F508del CFTR (Homo sapiens, UniProt P13569, DEL508-508)
T1 construct: expressed in transfected cells; host or cells: Fisher Rat Thyroid (FRT) cells
Experiment: CFTR-YFP High Throughput Assay
Assay type: cell-based
Conditions: FRT cells expressing human F508del CFTR and YFP; for Emax: EMax normalized to the positive control, read-out: % Efficacy
Experimental: Assays for Detecting and Measuring the Effect of Compounds on F508del-CFTR Channels CFTR-YFP High Throughput Assay-CFTR Corrector Protocol:
This protocol is designed to selectively screen small molecule compounds for F508del CFTR corrector activities in the HTS YFP (yellow fluorescent protein) flux assay. In this protocol, the cells are incubated with testing compounds for 24 hours, washed with PBS, stimulated with forskolin and a standard potentiator, and fluorescence in each plate well is measured kinetically read on a 384-well HTS plate reader, such as the Hamamatsu FDSS-6000.
YFP fluorescence intensity values are acquired at high speed before and after iodide buffer is injected to the assay cells. Iodide enters the cells via active CFTR channels in the plasma membrane, and quenches the YFP fluorescence. The rate of fluorescence quenching is proportionate to the total CFTR activity in the cell membrane. F508del CFTR correctors increase the number of CFTR molecules in the testing cell plasma membrane, and thereby accelerate YFP quenching.
This method was initially developed for bench top plate readers (Galietta et al., 2001), and was adapted to the HTS format (Sui et al. Assay Drug Dev. Technol. 2010).
Fisher Rat Thyroid (FRT) cells stably expressing both human F508del CFTR and a halide-sensitive yellow fluorescent protein (YFP-H148Q/I152L 25,22) (Galietta et al. Am. J. Physiol Cell Physiol 281(5), C1734, 2001) were cultured on plastic surface in Coon's modified Ham's F12 medium supplemented with FBS 10%, L-glutamine 2 mM, penicillin 100 U/ml, and streptomycin 100 µg/ml. G418 (0.75-1.0 mg/ml) and zeocin (3.2 ug/ml) were used for selection of FRT cells expressing F508del CFTR and YFP. For primary screening, FRT cells were plated into 384-well black wall, transparent bottom microtiter plates (Costar; Corning Inc.) at a cell density of 20,000-40,000 per well. Test compound was applied to the cells at varying concentrations ranging from 2 nM-40 μM in either a 2-fold or 3-fold dilution series. Cells were incubated in a cell culture incubator at 37° C. with 5% CO2 for 24-26 h. Assay plates were washed with DPBS media (Thermo, cat# SH30028.02) to remove unbound cells and compound. Stimulation media (25 μL) containing 20 μM Forskolin & 30 μM P3 [6-(Ethyl-phenyl-sulfonyl)-4-oxo-1,4-dihydro-quinoline-3-carboxylic acid 2-methoxy-benzylamide] in Hams F-12 coon's modified media was added to the plate wells and incubated at room temperature for 60-120 min. […] (10 mM HEPES, 1 mM MgCl2, 3 mM KCl, 1 mM CaCl2, 150 mM NaI) was then added and fluorescence quench curves (Excitation 500 nm/Emission 540 nm; exposure 136 ms) were immediately recorded on an FDSS-6000 plate reader (Hamamatsu). Quench rates were derived from least squares fitting of the data as described by Sui et al (2010).
CFTR-YFP High Throughput Assay-CFTR Potentiator Protocol:
This protocol is designed to selectively screen small molecule compounds for F508del CFTR potentiator activities in the HTS YFP flux assay. Such compounds act acutely to stimulate CFTR already expressed on the membrane surface. In this protocol, the cells are incubated at 27° C. for 24 hours to homogeneously boost F508del CFTR expression in the cell membrane (low temperature correction), washed with PBS, treated with test compound, and CFTR activity is stimulated with forskolin for 1-2 hr. Measurement of ion flux is initiated by addition of iodide-containing buffer, and YFP quenching is kinetically recorded using a 384-well HTS plate reader, such as the Hamamatsu FDSS-6000.
YFP fluorescence intensity values are acquired at high speed over a 1 min time course before and after iodide buffer is injected to the assay cells. Iodide enters the cells via active CFTR channels in the plasma membrane, and quenches the YFP fluorescence. The rate of fluorescence quenching is proportionate to total CFTR activity in the cell membrane. […]

T1 sequence (P13569 with tags, fused parts or gaps DEL508-508): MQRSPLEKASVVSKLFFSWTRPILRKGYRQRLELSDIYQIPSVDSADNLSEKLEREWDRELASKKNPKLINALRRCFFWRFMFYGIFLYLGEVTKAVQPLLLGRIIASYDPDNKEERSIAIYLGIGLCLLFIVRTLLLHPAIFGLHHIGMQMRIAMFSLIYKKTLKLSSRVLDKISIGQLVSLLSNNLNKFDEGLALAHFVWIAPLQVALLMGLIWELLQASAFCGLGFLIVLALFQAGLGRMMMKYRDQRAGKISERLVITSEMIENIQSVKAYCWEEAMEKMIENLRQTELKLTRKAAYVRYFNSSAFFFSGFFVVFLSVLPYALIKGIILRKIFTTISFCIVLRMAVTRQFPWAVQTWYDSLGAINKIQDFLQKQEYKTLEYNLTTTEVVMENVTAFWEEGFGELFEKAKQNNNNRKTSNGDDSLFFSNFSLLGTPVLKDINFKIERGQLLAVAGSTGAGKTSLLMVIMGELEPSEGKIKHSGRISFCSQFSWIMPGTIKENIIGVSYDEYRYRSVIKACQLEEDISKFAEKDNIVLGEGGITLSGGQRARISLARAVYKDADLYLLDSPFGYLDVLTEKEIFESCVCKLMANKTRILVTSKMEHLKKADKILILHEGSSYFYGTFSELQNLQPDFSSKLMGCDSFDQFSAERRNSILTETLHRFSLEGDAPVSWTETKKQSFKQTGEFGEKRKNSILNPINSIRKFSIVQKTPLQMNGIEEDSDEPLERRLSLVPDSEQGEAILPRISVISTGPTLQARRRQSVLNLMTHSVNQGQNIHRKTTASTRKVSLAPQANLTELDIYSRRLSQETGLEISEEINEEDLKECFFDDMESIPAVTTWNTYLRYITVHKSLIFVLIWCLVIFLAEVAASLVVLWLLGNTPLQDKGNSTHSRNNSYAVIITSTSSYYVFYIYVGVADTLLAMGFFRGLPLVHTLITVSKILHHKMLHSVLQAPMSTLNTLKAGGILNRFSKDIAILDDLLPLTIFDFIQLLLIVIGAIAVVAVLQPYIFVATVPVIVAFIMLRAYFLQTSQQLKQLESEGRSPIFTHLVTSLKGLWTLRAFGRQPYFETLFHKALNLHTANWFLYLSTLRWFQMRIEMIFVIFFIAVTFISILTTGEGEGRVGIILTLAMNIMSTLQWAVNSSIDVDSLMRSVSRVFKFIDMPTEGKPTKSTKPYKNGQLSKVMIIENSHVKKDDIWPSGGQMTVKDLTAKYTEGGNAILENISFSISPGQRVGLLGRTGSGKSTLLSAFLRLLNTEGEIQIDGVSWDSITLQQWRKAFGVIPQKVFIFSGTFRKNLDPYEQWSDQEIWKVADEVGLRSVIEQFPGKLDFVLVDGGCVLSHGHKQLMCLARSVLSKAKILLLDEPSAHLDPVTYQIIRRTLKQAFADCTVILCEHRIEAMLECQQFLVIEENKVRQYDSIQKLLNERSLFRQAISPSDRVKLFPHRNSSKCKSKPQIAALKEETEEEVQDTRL

Row | SMILES | Emax | EC50
1 | CCc1ccc(N(CC)C(=O)Cn2nc(Cc3cccnc3)c3cnccc3c2=O)cc1 [Example 42, N-ethyl-N-(4-ethylphenyl)-2-(1-oxo-4-(pyridin-3-ylmethyl)pyrido[3,4-d]pyridazin-2(1H)-yl)acetamide] | 10 to 30% | 
2 | CCN(C(=O)Cn1nc(Cc2cccnc2)c2cc(OC)c(OC)cc2c1=O)c1ccc2c(c1)OC(F)(F)O2 [Example 44, N-(2,2-difluorobenzo[d][1,3]dioxol-5-yl)-2-(6,7-dimethoxy-1-oxo-4-(pyridin-3-ylmethyl)phthalazin-2(1H)-yl)-N-ethylacetamide] | 30 to 80% | 10 to 20 µM
3 | CCN(C(=O)Cn1nc(Cc2cccnc2)c2cccc(C)c2c1=O)c1ccc2c(c1)OC(F)(F)O2 [Example 47, N-(2,2-difluorobenzo[d][1,3]dioxol-5-yl)-N-ethyl-2-(8-methyl-1-oxo-4-(pyridin-3-ylmethyl)phthalazin-2(1H)-yl)acetamide] | 30 to 80% | 
4 | CCN(C(=O)Cn1nc(Cc2cccnc2)c2ccc(C(C)(C)C)cc2c1=O)c1ccc2c(c1)OC(F)(F)O2 [Example 50, 2-(7-(tert-butyl)-1-oxo-4-(pyridin-3-ylmethyl)phthalazin-2(1H)-yl)-N-(2,2-difluorobenzo[d][1,3]dioxol-5-yl)-N-ethylacetamide] | > 80% | 
5 | CCN(C(=O)Cn1nc(Cc2cccnc2)c2cc(Cl)ccc2c1=O)c1ccc2c(c1)OC(F)(F)O2 [Example 53, 2-(6-chloro-1-oxo-4-(pyridin-3-ylmethyl)phthalazin-2(1H)-yl)-N-(2,2-difluorobenzo[d][1,3]dioxol-5-yl)-N-ethylacetamide] | 30 to 80% | 
6 | CCN(C(=O)Cn1nc(Cc2cccnc2)c2cccc(OC)c2c1=O)c1ccc2c(c1)OC(F)(F)O2 [Example 55, N-(2,2-difluorobenzo[d][1,3]dioxol-5-yl)-N-ethyl-2-(8-methoxy-1-oxo-4-(pyridin-3-ylmethyl)phthalazin-2(1H)-yl)acetamide] | 30 to 80% | 
7 | CCN(C(=O)Cn1nc(Cc2cccnc2)c2c(OC)cccc2c1=O)c1ccc2c(c1)OC(F)(F)O2 [Example 56, N-(2,2-difluorobenzo[d][1,3]dioxol-5-yl)-N-ethyl-2-(5-methoxy-1-oxo-4-(pyridin-3-ylmethyl)phthalazin-2(1H)-yl)acetamide] | 30 to 80% | 
8 | CCOc1cccc2c(Cc3cccnc3)nn(CC(=O)N(CC)c3ccc4c(c3)OC(F)(F)O4)c(=O)c12 [Example 57, N-(2,2-difluorobenzo[d][1,3]dioxol-5-yl)-N-ethyl-2-(8-ethoxy-1-oxo-4-(pyridin-3-ylmethyl)phthalazin-2(1H)-yl)acetamide] | 30 to 80% | 
9 | CCN(C(=O)Cn1nc(Cc2cccnc2)c2c(OC3CCCCC3)cccc2c1=O)c1ccc2c(c1)OC(F)(F)O2 [Example 60, 2-(5-(cyclohexyloxy)-1-oxo-4-(pyridin-3-ylmethyl)phthalazin-2(1H)-yl)-N-(2,2-difluorobenzo[d][1,3]dioxol-5-yl)-N-ethylacetamide] | 30 to 80% | 
10 | CCN(C(=O)Cn1nc(Cc2cccnc2)c2cccc(OCCOC)c2c1=O)c1ccc2c(c1)OC(F)(F)O2 [Example 61, N-(2,2-difluorobenzo[d][1,3]dioxol-5-yl)-N-ethyl-2-(8-(2-methoxyethoxy)-1-oxo-4-(pyridin-3-ylmethyl)phthalazin-2(1H)-yl)acetamide] | 30 to 80% | 
11 | CCOC(=O)c1ccc2c(-c3cccc(Cl)c3)nn(CC(=O)N(C)c3ccc4nc(C)oc4c3)c(=O)c2c1 [Example 65, ethyl 1-(3-chlorophenyl)-3-(2-(methyl(2-methylbenzo[d]oxazol-6-yl)amino)-2-oxoethyl)-4-oxo-3,4-dihydrophthalazine-6-carboxylate] | > 80% | < 10 µM

Now from value to compound:

Row | Emax | EC50 | SMILES
12 | 10 to 30% | > 20 µM | CCc1ccc(N(CC)C(=O)Cn2nc(Cc3cccnc3)c3ncccc3c2=O)cc1 [Example 43, N-ethyl-N-(4-ethylphenyl)-2-(5-oxo-8-(pyridin-3-ylmethyl)pyrido[2,3-d]pyridazin-6(5H)-yl)acetamide]
13 | > 80% |  | CCN(C(=O)Cn1nc(Cc2cccnc2)c2ccc(C)cc2c1=O)c1ccc2c(c1)OC(F)(F)O2 [Example 45, N-(2,2-difluorobenzo[d][1,3]dioxol-5-yl)-N-ethyl-2-(7-methyl-1-oxo-4-(pyridin-3-ylmethyl)phthalazin-2(1H)-yl)acetamide]
14 | 30 to 80% |  | CCN(C(=O)Cn1nc(Cc2cccnc2)c2cc(C)ccc2c1=O)c1ccc2c(c1)OC(F)(F)O2 [Example 46, N-(2,2-difluorobenzo[d][1,3]dioxol-5-yl)-N-ethyl-2-(6-methyl-1-oxo-4-(pyridin-3-ylmethyl)phthalazin-2(1H)-yl)acetamide]
15 | 30 to 80% |  | CCN(C(=O)Cn1nc(Cc2cccnc2)c2c(C)cccc2c1=O)c1ccc2c(c1)OC(F)(F)O2 [Example 48, N-(2,2-difluorobenzo[d][1,3]dioxol-5-yl)-N-ethyl-2-(5-methyl-1-oxo-4-(pyridin-3-ylmethyl)phthalazin-2(1H)-yl)acetamide]
16 | > 80% |  | CCN(C(=O)Cn1nc(Cc2cccnc2)c2cc(C(C)(C)C)ccc2c1=O)c1ccc2c(c1)OC(F)(F)O2 [Example 49, 2-(6-(tert-butyl)-1-oxo-4-(pyridin-3-ylmethyl)phthalazin-2(1H)-yl)-N-(2,2-difluorobenzo[d][1,3]dioxol-5-yl)-N-ethylacetamide]
17 | 30 to 80% |  | CCN(C(=O)Cn1nc(Cc2cccnc2)c2cc(OC)ccc2c1=O)c1ccc2c(c1)OC(F)(F)O2 [Example 51, N-(2,2-difluorobenzo[d][1,3]dioxol-5-yl)-N-ethyl-2-(6-methoxy-1-oxo-4-(pyridin-3-ylmethyl)phthalazin-2(1H)-yl)acetamide]
18 | 30 to 80% |  | CCN(C(=O)Cn1nc(Cc2cccnc2)c2ccc(OC)cc2c1=O)c1ccc2c(c1)OC(F)(F)O2 [Example 52, N-(2,2-difluorobenzo[d][1,3]dioxol-5-yl)-N-ethyl-2-(7-methoxy-1-oxo-4-(pyridin-3-ylmethyl)phthalazin-2(1H)-yl)acetamide]
19 | 30 to 80% |  | CCN(C(=O)Cn1nc(Cc2cccnc2)c2ccc(Cl)cc2c1=O)c1ccc2c(c1)OC(F)(F)O2 [Example 54, 2-(7-chloro-1-oxo-4-(pyridin-3-ylmethyl)phthalazin-2(1H)-yl)-N-(2,2-difluorobenzo[d][1,3]dioxol-5-yl)-N-ethylacetamide]
20 | 30 to 80% | < 10 µM | CCOc1cccc2c(=O)n(CC(=O)N(CC)c3ccc4c(c3)OC(F)(F)O4)nc(Cc3cccnc3)c12 [Example 58, N-(2,2-difluorobenzo[d][1,3]dioxol-5-yl)-N-ethyl-2-(5-ethoxy-1-oxo-4-(pyridin-3-ylmethyl)phthalazin-2(1H)-yl)acetamide]
21 | 30 to 80% | 10 to 20 µM | CCN(C(=O)Cn1nc(Cc2cccnc2)c2cccc(OC3CCCCC3)c2c1=O)c1ccc2c(c1)OC(F)(F)O2 [Example 59, 2-(8-(cyclohexyloxy)-1-oxo-4-(pyridin-3-ylmethyl)phthalazin-2(1H)-yl)-N-(2,2-difluorobenzo[d][1,3]dioxol-5-yl)-N-ethylacetamide]
22 | 30 to 80% |  | CCN(C(=O)Cn1nc(Cc2cccnc2)c2c(OCCOC)cccc2c1=O)c1ccc2c(c1)OC(F)(F)O2 [Example 62, N-(2,2-difluorobenzo[d][1,3]dioxol-5-yl)-N-ethyl-2-(5-(2-methoxyethoxy)-1-oxo-4-(pyridin-3-ylmethyl)phthalazin-2(1H)-yl)acetamide]
